Measurements from patent US12097213B2, “Sequential treatment of cancers using 6-thio-dG, checkpoint inhibitors and radiation therapy” (The Board of Regents of the University of Texas System, priority 2020, dated 2024).

Tests used:
MC38 tumor cells = assay: MC38 tumor growth and treatment in mice; type: in vivo, mouse
Procedure: (§1) Tumor growth and treatment. A total of 5×10^5 MC38, 5×10^5 CT26 or 1×10^6 LLC cells were inoculated subcutaneously into right dorsal flanks of the mice in 100 μL phosphate buffered saline (PBS). Tumor-bearing mice were randomly grouped into treatment groups when tumors grew to around 100 mm^3. For 6-thio-dG single treatment, 3 mg/kg 6-thio-dG was intraperitoneally given on days 7, 8 and 9 in MC38 tumor and LLC tumor and on days 5, 6, 7 for CT26 tumor. For CSF1R, NKL.1, CD4+ and CD8+ T cell depletion, 200 μg of antibodies were intraperitoneally injected 1 day before treatment initiation and then twice a week for 2 weeks. For PD-L1 blockade combination therapy in MC38 model, 6-thio-dG was given on day 10 and day 11, 50 μg PD-L1 was intraperitoneally injected on day 13 and 17. For PD-L1 blockade combination therapy in LLC model, 6-thio-dG was given on day 4, 5, 6, 10 and 11, 200 μg PD-L1 was intraperitoneally injected on day 8 and 13. Tumor volumes were measured by the length (a), width (b) and height (h) and calculated as tumor volume=abh/2.

CT26 tumor cells = assay: CT26 tumor growth and treatment in mice; type: in vivo, mouse; details: BALB/C mice; 3 mg/kg, three days treatment (days 5, 6, 7)
Procedure: as §1

With `Nc1nc2c(ncn2[C@H]2C[C@H](O)[C@@H](CO)O2)c(=S)[nH]1` [6-thio-dG, 6-thio-2′-deoxyguanosine] the “therapeutic effect on tumor growth with CD4+ T cell depletion” value (MC38 tumor cells; 200 μg anti-CD4, 3 mg/kg, days 7, 8, 9) was “marginal influence”, the “therapeutic effect on tumor growth with CD8+ T cell depletion” value (MC38 tumor cells; 200 μg anti-CD8, 3 mg/kg, days 7, 8, 9) was “completely abolished” and the “tumor growth with macrophage depletion” value (MC38 tumor cells; 200 μg anti-CSF1R, 3 mg/kg, days 7, 8, 9) was “worked even better”. For the same compound, the “therapeutic effect with NK cell depletion” value (MC38 tumor cells; 200 μg anti-NK1.1, 3 mg/kg, days 7, 8, 9) was “did not see an impact”, the tumor growth (MC38 tumor cells; Batf3 deficient mice, 3 mg/kg, days 7, 8, 9) was “partially delayed tumor growth but was significantly less effective compared with WT mice” and the mice tumor free (MC38 tumor cells; Batf3−/− mice) was “none”. The anti-tumor effect (MC38 tumor cells; Ifnar1−/− mice, 3 mg/kg, days 7, 8, 9) was “abolished”, the tumor growth (MC38 tumor cells; Mb21d1KO MC38 tumor cells in C57BL/6 mice, 3 mg/kg, days 7, 8, 9) was “still controlled tumor growth” and the tumor growth (MC38 tumor cells; Myd88−/− mice, 3 mg/kg, days 7, 8, 9) was “controlled tumor growth well”. For the same compound, the “therapeutic effect on tumor growth” value (MC38 tumor cells; Rag1 knock out mice, 3 mg/kg, days 7, 8, 9) was “completely diminished”, the tumor growth (MC38 tumor cells; Tmem173KO MC38 tumor cells in C57BL/6 mice, 3 mg/kg, days 7, 8, 9) was “still controlled tumor growth” and the “tumor growth (efficacy)” value (MC38 tumor cells; Tmem173−/− mice, 3 mg/kg, days 7, 8, 9) was “completely lost efficacy”. The tumor growth (MC38 tumor cells; WT C57BL/6 mice, 3 mg/kg daily for three days (days 7, 8, 9), i.p., vs control tumor) was “significantly reduced”, the “mice completely tumor free” value (MC38 tumor cells; WT mice) was 60% and the “re-challenge with MC38 tumor (memory response)” value (MC38 tumor cells; cured mice rested 5 weeks, 10 times more tumor cells, opposite flank) was “spontaneously rejected re-challenged MC38 tumors”. The “tumor volume / tumor growth in advanced tumors” value (MC38 tumor cells; tumor sizes 150-200 mm^3, 6-thio-dG 3 mg/kg days 10, 11, 50 μg anti-PD-L1 days 13 and 17) was “difficult to control” and the tumor growth (CT26 tumor cells) was “significant tumor growth delay”.
